Literature values in patent US11013731B2, “Intratumoral administration of sirolimus for treatment of prostate cancer” (SANTEN PHARMACEUTICAL CO., LTD., priority 2017, dated 2021).

Details: according to Medscape

## CO[C@H]1C[C@@H]2CC[C@@H](C)[C@@](O)(O2)C(=O)C(=O)N2CCCC[C@H]2C(=O)O[C@H]([C@H](C)C[C@@H]2CC[C@@H](O)[C@H](OC)C2)CC(=O)[C@H](C)/C=C(\C)[C@@H](O)[C@@H](OC)C(=O)[C@H](C)C[C@H](C)/C=C/C=C/C=C/1C [sirolimus]
  oral bioavailability: 14%
